# Paper PMC4686731, “Screening of Pharmacologically Active Small Molecule Compounds Identifies Antifungal Agents Against Candida Biofilms” (Frontiers in Microbiology, 2015)
# Read-outs that look alike come from different tables or passages of the source.
# What was measured:
# [1] = tested on: C. albicans strain SC5314; test: High-throughput screening (HTS) with antifungal susceptibility test, CellTiter-Glo ATP read-out; format: cell-based, Candida albicans; details: for inhibition at 10 µM: Candida albicans, SC5314, 24 h; for fungistatic or fungicidal effect on C. albicans: HTS; for percent inhibition of the metabolic activity (ATP level) of C. albicans: 10 µM
# Procedure: (§1) The in vitro susceptibility of well-characterized wild-type C. albicans strain SC5314, which was provided by Prof. N.A.R. Gow (University of Aberdeen, Aberdeen, UK) was tested against 1280 compounds from the Library of Pharmacologically Active Compounds (LOPAC^1280TM, Sigma–Aldrich, USA). The screen was performed with C. albicans SC5314, and hits were further confirmed with the type strains C. dubliniensis MYA 577, C. glabrata ATCC 2001, C. kusei ATCC 6258, C. palapsilosis ATCC 22019, and C. tropicalis ATCC13803.
# High-Throughput Screening was conducted using ASTs, according to the standard Clinical and Laboratory Standard Institute (CLSI) method ([Watamoto et al., 2009]). Inocula from 24-h yeast cultures on Sabouraud’s dextrose agar (SDA) (Gibco, UK) were adjusted to a turbidity equivalent to a 0.5 McFarland standard at 520 nm using a spectrophotometer. The suspension was diluted further with RPMI 1640 medium (Gibco, UK) to yield an inoculum concentration of 0.5 × 10^3 to 2.5 × 10^3 cells/mL. C. albicans was incubated with small-molecule compounds (10 μM) from LOPAC^1280TM, which total volume was 150 μL, in 96-well plates at 37°C for 24 h to evaluate the antifungal effects. After incubation, the viability of the fungal cells was determined using the CellTiter-Glo luminescent cell viability kit (Promega, USA). The CellTiter-Glo reagent (150 μL) was added to the medium and incubated for 15 min at room temperature with shaking at 900 rpm. The luminescent signals were detected using a luminometer (GloMax Discover System, Promega, USA). The resulting signal intensity corresponds to ATP amounts and thus to the number of viable microbial cells upon drug exposure ([Stylianou et al., 2014]). In all 96-well plates, 100 and 0% growth controls were included as microbes plus dimethyl sulfoxide (0.1%) and microbes plus amphotericin B (100 μM), respectively. All assays were performed at least as two biological replicates in triplicate. The ATP level of C. albicans cells, which corresponded to the cell metabolic activity and viability, was calculated for each compound using the following equation (Figure 1A).
# Percentageinhibition=100 × 1-{(experimental-positivecontrolaverage)/(negativecontrolaverage-positivecontrolaverage)}
# Wells were scored as hits if the percentage inhibition was >50%. Hit compounds were evaluated further to assess their antifungal effects.
# [2] = tested on: C. albicans SC5314; test: AST broth microdilution, high cell density planktonic mode; format: cell-based, Candida albicans; details: Candida albicans, SC5314, 24 h, read-out: Minimum inhibitory concentration (MIC)
# Procedure: as §1
# (§2) To investigate the antifungal effects of the hit compounds, ASTs were conducted using broth microdilution assays with high cell densities of the planktonic mode, adhesion phase and biofilm mode against Candida strains (C. albicans, C. dubliniensis, C. glabrata, C. kusei, C. palapsilosis, and C. tropicalis). First, high density cell (1 × 10^7 cells/mL) suspensions were added to the RPMI medium containing each hit compound (10–1000 μM) in 96-well plates and incubated at 37°C for 24 h. Next, the 50% minimum inhibitory concentrations (MICs) of high-density Candida planktonic cultures were determined using the CellTiter-Glo luminescent cell viability kit, as described above. The antifungal effects of the hit compounds were also evaluated in the adhesion phase and the biofilm mode, in the same manner as the planktonic mode. Candida biofilms were produced as described previously ([Jin et al., 2004]). In brief, Candida cells were grown on SDA at 37°C for 18 h. A loopful of the yeast culture was then inoculated into yeast nitrogen base (YNB) (Difco, USA) medium supplemented with 50 mM glucose. After overnight broth culture in a rotary shaker at 75 rpm, the cells were washed twice with 20 mL of PBS (pH 7.2, 0.1 M). The yeast cells were re-suspended in YNB supplemented with 100 mM glucose and adjusted to an optical density of 0.38 (1 × 10^7 cells/mL) at 520 nm. This standardized cell suspension was used immediately to form biofilms in the wells of 96-well polystyrene culture plates (Iwaki, Tokyo, Japan). First, the cells were incubated for 90 min at 37°C in a shaker at 75 rpm to allow yeast adherence to the well surface (adhesion phase), before the medium was aspirated and each well was washed once with PBS to remove non-adherent cells. YNB containing 100 mM glucose was then pipetted into each well and the plate was incubated at 37°C in a shaker at 75 rpm for 24 h. Non-adherent cells were removed by pipetting and the biofilms were washed twice with PBS. Following this biofilm growth phase, microscopic examination of the cultures was performed to exclude contamination. These ASTs were repeated on three different occasions.
# [3] = tested on: C. glabrata ATCC 2001; test: AST, adhesion phase; format: cell-based; details: Nakaseomyces glabratus, ATCC2001, 1.5 h, read-out: Minimum inhibitory concentration (MIC)
# Procedure: as §1, §2
# [4] = tested on: C. kusei ATCC 6258; test: AST, adhesion phase; format: cell-based; details: 1.5 h, read-out: Minimum inhibitory concentration (MIC)
# Procedure: as §1, §2
# [5] = tested on: C. palapsilosis ATCC 22019; test: AST, adhesion phase; format: cell-based; details: 1.5 h, read-out: Minimum inhibitory concentration (MIC)
# Procedure: as §1, §2
# [6] = tested on: C. tropicalis ATCC13803; test: AST, adhesion phase; format: cell-based; details: Candida tropicalis, ATCC13803, 1.5 h, read-out: Minimum inhibitory concentration (MIC)
# Procedure: as §1, §2
# [7] = tested on: C. albicans SC5314 biofilm; test: AST, biofilm mode; format: cell-based; details: Candida albicans, read-out: Minimum inhibitory concentration (MIC)
# Procedure: as §1, §2
# [8] = tested on: C. dubliniensis MYA 577 biofilm; test: AST, biofilm mode; format: cell-based; details: Candida dubliniensis, MYA577BIOFILM, read-out: Minimum inhibitory concentration (MIC)
# Procedure: as §1, §2
# [9] = tested on: C. glabrata ATCC 2001 biofilm; test: AST, biofilm mode; format: cell-based; details: Nakaseomyces glabratus, read-out: Minimum inhibitory concentration (MIC)
# Procedure: as §1, §2
# [10] = tested on: C. kusei ATCC 6258 biofilm; test: AST, biofilm mode; format: cell-based; details: read-out: Minimum inhibitory concentration (MIC)
# Procedure: as §1, §2
# [11] = tested on: C. palapsilosis ATCC 22019 biofilm; test: AST, biofilm mode; format: cell-based; details: read-out: Minimum inhibitory concentration (MIC)
# Procedure: as §1, §2
# [12] = tested on: C. tropicalis ATCC13803 biofilm; test: AST, biofilm mode; format: cell-based; details: Candida tropicalis, read-out: Minimum inhibitory concentration (MIC)
# Procedure: as §1, §2
# [13] = compound 10 μM, 0.5 × 10^3 to 2.5 × 10^3 cells/mL, 37°C, 24 h, read-out: percent inhibition of the metabolic activity (ATP level) of C. albicans
# [14] = compound 10 μM, 0.5 × 10^3 to 2.5 × 10^3 cells/mL, 37°C, 24 h
# [15] = 50% MIC, planktonic mode, 1 × 10^7 cells/mL, 24 h
# [16] = adhesion phase (90 min adherence)
# [17] = SC5314, biofilm mode (24 h biofilm)
# [18] = ATCC2001, biofilm mode (24 h biofilm)
# [19] = ATCC13803, biofilm mode (24 h biofilm)
SMILES,"inhibition at 10 µM [1, 13] [%]",fungistatic or fungicidal effect on C. albicans ([1]; compound 10 μM),"percent inhibition of the metabolic activity (ATP level) of C. albicans [1, 14] [%]","MIC [2, 15] [µM]","MIC [3, 16] [µM]","MIC [4, 16] [µM]","MIC [5, 16] [µM]","MIC [6, 16] [µM]","MIC [7, 17] [µM]",MIC ([8]; biofilm mode (24 h biofilm)) [µM],"MIC [9, 18] [µM]",MIC ([10]; biofilm mode (24 h biofilm)) [µM],MIC ([11]; biofilm mode (24 h biofilm)) [µM],"MIC [12, 19] [µM]",other results
Cc1ccc(S(=O)(=O)/C=C/C#N)cc1 [Bay11-7082],100,strong fungicidal effects,> 90,7.8,31.3,15.6,15.6,31.3,31.3,31.3,62.5,62.5,15.6,62.5,–
CC(C)(C)c1ccc(S(=O)(=O)/C=C/C#N)cc1 [Bay11-7085],100,strong fungicidal effects,> 90,3.9,31.3,15.6,7.8,31.3,31.3,62.5,62.5,62.5,15.6,62.5,–
Cc1c2ccncc2c(C)c2c1[nH]c1ccccc12 [Ellipticine],100,strong fungicidal effects,> 90,7.8,62.5,250,125,250,125,500,62.5,250,250,250,–
"C[n+]1cc2c3c(ccc2c2ccc4cc5c(cc4c21)OCO5)OCO3 [Sanguinarine, Sanguinarine chloride hydrate]",–,strong fungicidal effects,> 90,–,–,–,–,–,–,–,–,–,–,–,"inhibition at 10 µM ([1]; read-out: percent inhibition of the metabolic activity (ATP level) of C. albicans, compound 10 μM, 0.5 × 10^3 to 2.5 × 10^3 cells/mL, 37°C, 24 h): 100%; MIC [2]: < 1 µM; MIC [3]: 15.6 µM; MIC [4]: 7.8 µM; MIC [5]: 7.8 µM; MIC [6]: 7.8 µM; MIC ([7]; SC5314, 24 h): 15.6 µM; MIC ([8]; 24 h): 15.6 µM; MIC ([9]; ATCC2001, 24 h): 15.6 µM; MIC ([10]; 24 h): 31.3 µM; MIC ([11]; 24 h): 7.8 µM; MIC ([12]; ATCC13803, 24 h): 31.3 µM"
